Values of other authors as cited in patent EP1133548B2, “DETERGENT COMPOSITIONS IN TABLET FORM” (UNILEVER PLC, priority 1998, dated 2000).

conditions: 20°C; grams of solid to form a saturated solution in 100 grams of water

SMILES	Water Solubility (g/100g)
O=BO[O-].[Na+] [Sodium perborate anhydrous]	3.7
NC(N)=O [Urea]	>100
O=P(O)(O)OP(=O)(O)OP(=O)(O)O [Sodium tripolyphosphate anhydrous]	15
